Assay results as given in ChEMBL document CHEMBL5649169 (ChemMedChem, 2018).

Legend:
[1] = target: Syndecan-2 (Homo sapiens) (UniProt P34741)
[2] = target: Antigen peptide transporter 1 (Homo sapiens) (UniProt Q03518)
[3] = target: Hydroxyacyl-coenzyme A dehydrogenase, mitochondrial (Homo sapiens) (UniProt Q16836)
[4] = target: Ragulator complex protein LAMTOR3 (Homo sapiens) (UniProt Q9UHA4)
[5] = target: ATP-dependent RNA helicase DHX29 (Homo sapiens) (UniProt Q7Z478)
[6] = target: BAG family molecular chaperone regulator 2 (Homo sapiens) (UniProt O95816)
BAG family molecular chaperone regulator 2 (Homo sapiens), sequence (O95816 whole entry): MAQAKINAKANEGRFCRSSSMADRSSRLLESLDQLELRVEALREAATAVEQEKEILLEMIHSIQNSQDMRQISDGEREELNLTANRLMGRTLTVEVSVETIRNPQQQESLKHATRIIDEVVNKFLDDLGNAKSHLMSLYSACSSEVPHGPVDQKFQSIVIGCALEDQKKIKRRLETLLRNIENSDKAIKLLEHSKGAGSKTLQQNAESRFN

[7] = target: Serine hydrolase BPHL (Homo sapiens) (UniProt Q86WA6)
Serine hydrolase BPHL (Homo sapiens), sequence (Q86WA6 whole entry): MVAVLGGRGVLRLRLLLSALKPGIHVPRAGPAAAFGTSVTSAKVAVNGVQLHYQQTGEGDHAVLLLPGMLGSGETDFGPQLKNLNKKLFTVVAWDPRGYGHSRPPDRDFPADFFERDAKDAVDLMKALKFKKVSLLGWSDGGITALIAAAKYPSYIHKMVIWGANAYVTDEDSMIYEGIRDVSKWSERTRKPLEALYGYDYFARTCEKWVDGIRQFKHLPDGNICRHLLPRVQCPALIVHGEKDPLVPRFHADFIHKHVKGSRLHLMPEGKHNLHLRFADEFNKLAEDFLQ

[8] = target: Serine/arginine-rich splicing factor 9 (Homo sapiens) (UniProt Q13242)
Serine/arginine-rich splicing factor 9 (Homo sapiens), sequence (Q13242 whole entry): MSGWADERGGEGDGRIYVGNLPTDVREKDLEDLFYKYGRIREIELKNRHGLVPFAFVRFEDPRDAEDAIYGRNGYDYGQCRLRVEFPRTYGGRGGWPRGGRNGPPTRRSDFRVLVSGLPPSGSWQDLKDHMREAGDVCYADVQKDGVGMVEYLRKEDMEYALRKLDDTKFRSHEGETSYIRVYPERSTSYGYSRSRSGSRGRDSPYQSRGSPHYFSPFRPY

[9] = target: Dual specificity testis-specific protein kinase 1 (Homo sapiens) (UniProt Q15569)
Dual specificity testis-specific protein kinase 1 (Homo sapiens), sequence (Q15569 whole entry, looked up): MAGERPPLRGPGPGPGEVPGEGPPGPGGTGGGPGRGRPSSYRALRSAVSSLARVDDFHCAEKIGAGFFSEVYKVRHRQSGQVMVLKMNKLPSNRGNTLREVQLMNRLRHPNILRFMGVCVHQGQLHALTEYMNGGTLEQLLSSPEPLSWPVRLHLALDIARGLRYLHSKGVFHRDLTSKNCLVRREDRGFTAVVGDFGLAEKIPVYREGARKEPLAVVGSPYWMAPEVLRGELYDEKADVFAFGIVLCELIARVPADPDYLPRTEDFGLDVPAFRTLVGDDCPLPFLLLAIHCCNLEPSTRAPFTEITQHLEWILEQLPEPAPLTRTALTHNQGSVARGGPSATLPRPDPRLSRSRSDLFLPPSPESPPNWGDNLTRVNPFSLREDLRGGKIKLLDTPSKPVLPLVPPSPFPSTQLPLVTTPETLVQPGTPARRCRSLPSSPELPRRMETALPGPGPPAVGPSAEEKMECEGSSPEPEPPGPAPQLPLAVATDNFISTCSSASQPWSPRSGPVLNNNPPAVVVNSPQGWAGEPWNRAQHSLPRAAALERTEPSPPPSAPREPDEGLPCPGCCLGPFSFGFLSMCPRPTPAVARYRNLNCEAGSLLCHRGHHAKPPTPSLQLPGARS

[10] = target: Probable rRNA-processing protein EBP2 (Homo sapiens) (UniProt Q99848)
Probable rRNA-processing protein EBP2 (Homo sapiens), sequence (Q99848 whole entry): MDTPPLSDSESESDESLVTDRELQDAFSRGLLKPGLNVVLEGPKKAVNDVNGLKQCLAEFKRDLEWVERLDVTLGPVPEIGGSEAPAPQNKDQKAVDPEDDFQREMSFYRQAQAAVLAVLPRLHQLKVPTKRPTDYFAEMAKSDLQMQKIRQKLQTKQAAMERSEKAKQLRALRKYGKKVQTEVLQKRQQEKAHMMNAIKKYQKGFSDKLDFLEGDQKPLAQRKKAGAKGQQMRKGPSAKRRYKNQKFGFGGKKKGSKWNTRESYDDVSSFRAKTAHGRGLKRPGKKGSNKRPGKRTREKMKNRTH

[11] = target: Reticulon-3 (Homo sapiens) (UniProt O95197)
Reticulon-3 (Homo sapiens), sequence (O95197 whole entry): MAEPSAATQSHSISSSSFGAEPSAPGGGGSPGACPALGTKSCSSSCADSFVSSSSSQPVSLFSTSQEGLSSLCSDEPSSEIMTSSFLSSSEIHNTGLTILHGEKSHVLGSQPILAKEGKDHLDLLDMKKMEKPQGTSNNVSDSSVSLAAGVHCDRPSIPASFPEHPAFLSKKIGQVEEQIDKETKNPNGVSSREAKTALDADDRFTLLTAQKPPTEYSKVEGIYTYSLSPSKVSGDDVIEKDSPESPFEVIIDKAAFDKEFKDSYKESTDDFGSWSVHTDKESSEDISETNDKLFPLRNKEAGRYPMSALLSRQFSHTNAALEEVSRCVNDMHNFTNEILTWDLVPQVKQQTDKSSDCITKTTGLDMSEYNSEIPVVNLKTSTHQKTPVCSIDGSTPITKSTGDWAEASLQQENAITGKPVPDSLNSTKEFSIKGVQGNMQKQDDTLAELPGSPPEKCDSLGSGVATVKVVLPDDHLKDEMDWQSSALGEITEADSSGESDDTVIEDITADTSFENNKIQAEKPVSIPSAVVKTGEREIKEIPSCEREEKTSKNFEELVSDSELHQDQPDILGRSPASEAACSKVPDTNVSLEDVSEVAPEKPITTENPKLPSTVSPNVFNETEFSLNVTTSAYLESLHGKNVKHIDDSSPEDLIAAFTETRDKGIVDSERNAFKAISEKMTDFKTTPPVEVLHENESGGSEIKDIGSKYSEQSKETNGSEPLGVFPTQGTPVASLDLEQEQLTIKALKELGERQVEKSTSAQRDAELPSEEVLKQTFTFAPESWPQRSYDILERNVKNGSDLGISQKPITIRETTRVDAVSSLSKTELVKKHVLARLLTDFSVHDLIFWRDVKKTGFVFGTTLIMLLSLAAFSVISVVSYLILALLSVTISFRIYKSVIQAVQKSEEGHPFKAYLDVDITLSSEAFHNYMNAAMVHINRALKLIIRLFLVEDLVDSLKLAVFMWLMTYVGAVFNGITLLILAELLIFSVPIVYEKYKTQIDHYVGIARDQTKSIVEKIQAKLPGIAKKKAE

[12] = target: Dynamin-like GTPase OPA1, mitochondrial (Homo sapiens) (UniProt O60313)
[13] = target: Histone H1.2 (Homo sapiens) (UniProt P16403)
Histone H1.2 (Homo sapiens), sequence (P16403 whole entry): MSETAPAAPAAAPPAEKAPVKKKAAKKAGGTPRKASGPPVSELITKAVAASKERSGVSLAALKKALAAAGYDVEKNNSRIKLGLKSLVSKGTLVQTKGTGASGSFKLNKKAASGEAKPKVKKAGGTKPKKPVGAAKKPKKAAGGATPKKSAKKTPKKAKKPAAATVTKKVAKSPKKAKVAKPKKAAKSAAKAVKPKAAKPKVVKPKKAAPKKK

[14] = target: 10 kDa heat shock protein, mitochondrial (Homo sapiens) (UniProt P61604)
10 kDa heat shock protein, mitochondrial (Homo sapiens), sequence (P61604 whole entry): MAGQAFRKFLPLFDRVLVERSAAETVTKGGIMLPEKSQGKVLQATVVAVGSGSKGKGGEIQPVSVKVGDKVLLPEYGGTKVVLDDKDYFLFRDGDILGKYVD
Also: assay method not described here.

Ragulator complex protein LAMTOR3 (Homo sapiens), sequence (Q9UHA4 whole entry, one chain of several): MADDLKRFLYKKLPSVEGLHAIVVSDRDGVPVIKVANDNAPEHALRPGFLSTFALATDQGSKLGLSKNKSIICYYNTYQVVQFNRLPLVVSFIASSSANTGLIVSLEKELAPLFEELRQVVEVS
Antigen peptide transporter 1 (Homo sapiens), sequence (Q03518 whole entry): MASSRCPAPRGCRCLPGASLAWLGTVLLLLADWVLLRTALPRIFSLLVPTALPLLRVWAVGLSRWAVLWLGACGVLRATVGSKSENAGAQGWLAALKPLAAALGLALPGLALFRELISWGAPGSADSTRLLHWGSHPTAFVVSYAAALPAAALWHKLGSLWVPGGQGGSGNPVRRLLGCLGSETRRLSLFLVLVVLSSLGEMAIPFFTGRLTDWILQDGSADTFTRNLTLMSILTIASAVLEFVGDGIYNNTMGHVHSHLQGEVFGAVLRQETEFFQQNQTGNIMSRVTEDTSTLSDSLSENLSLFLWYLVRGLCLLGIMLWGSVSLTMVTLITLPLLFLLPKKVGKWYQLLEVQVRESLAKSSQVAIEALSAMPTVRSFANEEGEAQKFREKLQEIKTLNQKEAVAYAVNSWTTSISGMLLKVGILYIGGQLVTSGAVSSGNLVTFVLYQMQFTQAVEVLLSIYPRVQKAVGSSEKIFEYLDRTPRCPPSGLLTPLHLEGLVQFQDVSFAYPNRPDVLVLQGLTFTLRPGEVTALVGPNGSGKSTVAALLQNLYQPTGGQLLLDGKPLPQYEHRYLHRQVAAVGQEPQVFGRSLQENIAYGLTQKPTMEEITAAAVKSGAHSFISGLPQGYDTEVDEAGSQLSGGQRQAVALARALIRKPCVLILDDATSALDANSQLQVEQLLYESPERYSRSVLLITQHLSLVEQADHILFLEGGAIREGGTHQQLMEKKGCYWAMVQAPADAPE
Syndecan-2 (Homo sapiens), sequence (P34741 whole entry): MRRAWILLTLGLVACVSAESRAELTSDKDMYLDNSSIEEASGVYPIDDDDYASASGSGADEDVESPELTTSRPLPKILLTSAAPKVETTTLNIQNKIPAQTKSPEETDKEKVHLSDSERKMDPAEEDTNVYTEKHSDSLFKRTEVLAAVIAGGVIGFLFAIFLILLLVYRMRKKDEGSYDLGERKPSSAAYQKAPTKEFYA
Hydroxyacyl-coenzyme A dehydrogenase, mitochondrial (Homo sapiens), sequence (Q16836 whole entry): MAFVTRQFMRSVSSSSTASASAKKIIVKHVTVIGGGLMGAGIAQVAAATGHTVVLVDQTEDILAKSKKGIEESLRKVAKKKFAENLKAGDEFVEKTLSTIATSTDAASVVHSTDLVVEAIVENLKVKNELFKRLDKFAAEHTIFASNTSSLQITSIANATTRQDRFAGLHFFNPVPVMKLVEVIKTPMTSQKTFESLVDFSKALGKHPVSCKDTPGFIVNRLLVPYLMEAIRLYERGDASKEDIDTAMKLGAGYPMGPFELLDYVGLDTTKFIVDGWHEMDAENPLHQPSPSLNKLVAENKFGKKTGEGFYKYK

| Structure (SMILES) | ED50 [1] | ED50 [2] | ED50 [3] | ED50 [4] | ED50 [5] | ED50 [6] | ED50 [7] | ED50 [8] | ED50 [9] | ED50 [10] | ED50 [11] | ED50 [12] | ED50 [13] | ED50 [14] |
| --- | --- | --- | --- | --- | --- | --- | --- | --- | --- | --- | --- | --- | --- | --- |
| Cc1ccc(C(=O)Nc2cccc(C(F)(F)F)c2)cc1Nc1nc(-c2cccnc2)nc2c1cnn2C | 13600 nM | 63.9 nM | 6.25 nM | 816 nM | 15300 nM | 18.8 nM | 13200 nM | 12.4 nM | 0.117 nM | – | – | – | – | – |
| Cc1ccc(C(=O)Nc2cccc(C(F)(F)F)c2)cc1Nc1nc(-c2cccnc2)nc2nn(C)cc12 | – | – | – | – | – | – | – | – | – | 43.2 nM | 20.6 nM | 72.9 nM | 8.94 nM | 76.5 nM |
